Consider eleven compounds from ChEMBL document CHEMBL1201862, “PubChem BioAssay data set” (2004).

Some targets named below: Cytochrome P450 3A4 (Homo sapiens, UniProt P08684); Cytochrome P450 2D6 (Homo sapiens, UniProt P10635); Cytochrome P450 2C9 (Homo sapiens, UniProt P11712).
Test [1] addresses Peroxisome proliferator-activated receptor gamma/Nuclear receptor coactivator 3 (Homo sapiens, UniProt P37231). Nature of the test: TR-FRET dose response biochemical High Throughput Screening assay for agonists of the steroid receptor coactivator 3 (SRC-3) recruitment by the peroxisome proliferator-activated receptor gamma (PPAR gamma): non-selective agonists. [Related pubchem assays: 1301 (Confirmation screen.), 1048 (Primary screen.)]. The test is classed as functional. (In general: In TR-FRET formats the signal depends on donor and acceptor labels being close together.)

In test [2] the target is Peroxisome proliferator-activated receptor gamma/Nuclear receptor coactivator 2 (Homo sapiens, UniProt P37231). Kind of test: TR-FRET dose response biochemical High Throughput Screening assay for agonists of the steroid receptor coactivator 2 (SRC-2) recruitment by the peroxisome proliferator-activated receptor gamma (PPAR gamma): non-selective agonists. [Related pubchem assays: 1297, 1032 ]. The test is classed as functional.
Peroxisome proliferator-activated receptor gamma/Nuclear receptor coactivator 2, sequence (P37231 whole entry): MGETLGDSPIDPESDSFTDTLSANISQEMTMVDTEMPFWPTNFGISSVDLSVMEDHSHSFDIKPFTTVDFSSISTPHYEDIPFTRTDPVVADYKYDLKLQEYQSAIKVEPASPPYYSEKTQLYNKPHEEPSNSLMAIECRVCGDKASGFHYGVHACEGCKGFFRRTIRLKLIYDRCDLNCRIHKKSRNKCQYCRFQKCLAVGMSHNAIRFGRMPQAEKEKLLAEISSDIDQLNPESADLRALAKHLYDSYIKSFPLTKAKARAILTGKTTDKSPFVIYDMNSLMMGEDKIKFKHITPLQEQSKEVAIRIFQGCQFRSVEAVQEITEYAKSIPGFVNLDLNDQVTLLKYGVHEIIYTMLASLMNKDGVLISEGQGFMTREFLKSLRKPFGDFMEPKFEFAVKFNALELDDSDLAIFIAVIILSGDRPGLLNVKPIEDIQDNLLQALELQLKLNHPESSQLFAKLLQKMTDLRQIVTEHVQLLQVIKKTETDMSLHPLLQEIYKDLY
Peroxisome proliferator-activated receptor gamma/Nuclear receptor coactivator 2, sequence (Q15596 whole entry, further chain): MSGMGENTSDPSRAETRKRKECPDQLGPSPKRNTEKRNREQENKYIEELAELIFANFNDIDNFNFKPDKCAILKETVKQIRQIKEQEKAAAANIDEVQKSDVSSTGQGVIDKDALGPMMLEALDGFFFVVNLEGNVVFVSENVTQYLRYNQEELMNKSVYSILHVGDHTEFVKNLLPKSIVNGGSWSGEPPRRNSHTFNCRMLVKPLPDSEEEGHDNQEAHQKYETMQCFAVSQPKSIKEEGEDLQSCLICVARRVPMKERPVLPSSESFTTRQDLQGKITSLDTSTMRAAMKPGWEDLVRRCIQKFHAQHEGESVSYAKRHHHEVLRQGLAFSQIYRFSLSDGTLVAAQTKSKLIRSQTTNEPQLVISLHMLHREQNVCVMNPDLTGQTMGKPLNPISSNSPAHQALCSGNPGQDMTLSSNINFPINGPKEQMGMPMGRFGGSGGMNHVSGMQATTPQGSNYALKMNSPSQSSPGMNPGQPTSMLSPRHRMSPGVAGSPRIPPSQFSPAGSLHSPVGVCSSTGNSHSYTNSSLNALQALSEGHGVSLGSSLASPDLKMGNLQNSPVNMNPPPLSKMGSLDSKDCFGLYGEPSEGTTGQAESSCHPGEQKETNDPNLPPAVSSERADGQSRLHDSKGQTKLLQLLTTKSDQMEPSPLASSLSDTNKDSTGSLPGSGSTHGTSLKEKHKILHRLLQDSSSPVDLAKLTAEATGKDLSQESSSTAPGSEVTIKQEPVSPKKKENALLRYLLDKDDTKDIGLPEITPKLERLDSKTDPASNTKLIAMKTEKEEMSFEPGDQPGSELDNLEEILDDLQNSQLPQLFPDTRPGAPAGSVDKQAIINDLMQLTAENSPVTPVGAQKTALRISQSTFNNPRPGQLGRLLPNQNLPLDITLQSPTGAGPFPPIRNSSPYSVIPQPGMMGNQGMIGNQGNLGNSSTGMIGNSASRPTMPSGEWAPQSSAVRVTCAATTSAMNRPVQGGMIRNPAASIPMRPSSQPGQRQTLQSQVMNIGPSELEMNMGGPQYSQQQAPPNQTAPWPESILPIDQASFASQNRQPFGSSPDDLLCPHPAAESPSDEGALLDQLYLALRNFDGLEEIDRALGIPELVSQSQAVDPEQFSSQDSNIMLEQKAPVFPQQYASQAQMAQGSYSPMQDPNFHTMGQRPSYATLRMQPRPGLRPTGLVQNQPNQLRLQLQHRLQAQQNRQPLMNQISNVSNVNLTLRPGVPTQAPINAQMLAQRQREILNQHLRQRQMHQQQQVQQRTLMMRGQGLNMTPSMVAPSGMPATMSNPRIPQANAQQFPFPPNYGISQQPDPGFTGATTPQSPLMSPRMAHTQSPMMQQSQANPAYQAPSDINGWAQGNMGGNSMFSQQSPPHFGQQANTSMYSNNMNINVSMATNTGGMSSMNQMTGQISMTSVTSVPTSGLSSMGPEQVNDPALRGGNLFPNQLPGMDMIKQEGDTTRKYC

The target in test [3] is Peroxisome proliferator-activated receptor gamma/Nuclear receptor coactivator 1 (Homo sapiens, UniProt P37231). Kind of test: TR-FRET dose response biochemical High Throughput Screening assay for agonists of the steroid receptor coactivator 1 (SRC-1) recruitment by the peroxisome proliferator-activated receptor gamma (PPAR gamma): non-selective agonists. [Related pubchem assays (depositor defined):AID1300, AID1808, AID504735, AID631]. In kind it is protein assay.
Peroxisome proliferator-activated receptor gamma/Nuclear receptor coactivator 1, sequence (P37231 whole entry): as the sequence (P37231 whole entry) above
Peroxisome proliferator-activated receptor gamma/Nuclear receptor coactivator 1, sequence (Q15788 whole entry, further chain): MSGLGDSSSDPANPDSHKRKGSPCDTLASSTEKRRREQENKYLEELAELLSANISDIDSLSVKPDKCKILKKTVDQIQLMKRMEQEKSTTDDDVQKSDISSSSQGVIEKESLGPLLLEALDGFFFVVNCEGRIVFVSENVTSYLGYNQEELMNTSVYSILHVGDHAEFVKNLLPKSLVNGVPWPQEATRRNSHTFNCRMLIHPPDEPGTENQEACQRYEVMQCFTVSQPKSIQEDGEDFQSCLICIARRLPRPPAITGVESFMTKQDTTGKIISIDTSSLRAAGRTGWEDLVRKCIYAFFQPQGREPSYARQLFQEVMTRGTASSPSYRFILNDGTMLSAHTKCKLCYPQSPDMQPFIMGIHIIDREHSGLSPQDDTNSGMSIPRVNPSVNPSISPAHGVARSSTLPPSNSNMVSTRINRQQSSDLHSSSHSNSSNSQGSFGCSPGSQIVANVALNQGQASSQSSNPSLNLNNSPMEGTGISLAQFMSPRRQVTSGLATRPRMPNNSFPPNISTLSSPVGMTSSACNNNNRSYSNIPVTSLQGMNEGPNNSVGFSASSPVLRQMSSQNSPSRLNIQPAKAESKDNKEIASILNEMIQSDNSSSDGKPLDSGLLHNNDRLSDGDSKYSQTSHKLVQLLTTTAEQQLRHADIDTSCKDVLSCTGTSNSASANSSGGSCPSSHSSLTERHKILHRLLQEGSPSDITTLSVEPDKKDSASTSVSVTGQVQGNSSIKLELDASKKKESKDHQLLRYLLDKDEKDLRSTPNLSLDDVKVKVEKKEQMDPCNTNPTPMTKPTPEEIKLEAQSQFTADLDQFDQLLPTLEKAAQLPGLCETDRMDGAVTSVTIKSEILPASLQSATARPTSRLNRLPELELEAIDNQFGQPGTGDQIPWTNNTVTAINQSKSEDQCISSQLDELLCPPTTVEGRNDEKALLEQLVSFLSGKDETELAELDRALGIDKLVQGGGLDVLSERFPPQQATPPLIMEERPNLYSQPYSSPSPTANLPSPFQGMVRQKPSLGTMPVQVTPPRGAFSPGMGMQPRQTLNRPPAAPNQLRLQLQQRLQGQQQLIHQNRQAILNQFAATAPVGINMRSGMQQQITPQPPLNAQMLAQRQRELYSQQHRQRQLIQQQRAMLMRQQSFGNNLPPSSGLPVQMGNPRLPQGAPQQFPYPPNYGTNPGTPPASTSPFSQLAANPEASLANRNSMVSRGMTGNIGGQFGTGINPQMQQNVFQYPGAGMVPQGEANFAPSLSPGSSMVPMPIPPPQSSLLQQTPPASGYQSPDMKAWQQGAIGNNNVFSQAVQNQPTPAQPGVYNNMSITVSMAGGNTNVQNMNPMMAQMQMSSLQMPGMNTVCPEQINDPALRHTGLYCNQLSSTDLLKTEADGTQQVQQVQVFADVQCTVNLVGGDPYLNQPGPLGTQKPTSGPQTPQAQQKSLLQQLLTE

Test [4] in a line: Trypanosoma cruzi growth suppression in host cells – NIH3T3 host cells, beta-gal luminescence, confirmation (AID 2044).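 Further: intracellular parasites grown in NIH/3T3 mouse fibroblasts as host cells; luminescent beta-galactosidase reporter signal from transgenic T. cruzi replicating inside host cells; inhibitors lower the luminescence signal.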 The test is classed as functional, cell-based.
In test [5] the target is T1, Short transient receptor potential channel 4 (Mus musculus, UniProt Q9QUQ5).
T1 sequence (Q9QUQ5 whole entry): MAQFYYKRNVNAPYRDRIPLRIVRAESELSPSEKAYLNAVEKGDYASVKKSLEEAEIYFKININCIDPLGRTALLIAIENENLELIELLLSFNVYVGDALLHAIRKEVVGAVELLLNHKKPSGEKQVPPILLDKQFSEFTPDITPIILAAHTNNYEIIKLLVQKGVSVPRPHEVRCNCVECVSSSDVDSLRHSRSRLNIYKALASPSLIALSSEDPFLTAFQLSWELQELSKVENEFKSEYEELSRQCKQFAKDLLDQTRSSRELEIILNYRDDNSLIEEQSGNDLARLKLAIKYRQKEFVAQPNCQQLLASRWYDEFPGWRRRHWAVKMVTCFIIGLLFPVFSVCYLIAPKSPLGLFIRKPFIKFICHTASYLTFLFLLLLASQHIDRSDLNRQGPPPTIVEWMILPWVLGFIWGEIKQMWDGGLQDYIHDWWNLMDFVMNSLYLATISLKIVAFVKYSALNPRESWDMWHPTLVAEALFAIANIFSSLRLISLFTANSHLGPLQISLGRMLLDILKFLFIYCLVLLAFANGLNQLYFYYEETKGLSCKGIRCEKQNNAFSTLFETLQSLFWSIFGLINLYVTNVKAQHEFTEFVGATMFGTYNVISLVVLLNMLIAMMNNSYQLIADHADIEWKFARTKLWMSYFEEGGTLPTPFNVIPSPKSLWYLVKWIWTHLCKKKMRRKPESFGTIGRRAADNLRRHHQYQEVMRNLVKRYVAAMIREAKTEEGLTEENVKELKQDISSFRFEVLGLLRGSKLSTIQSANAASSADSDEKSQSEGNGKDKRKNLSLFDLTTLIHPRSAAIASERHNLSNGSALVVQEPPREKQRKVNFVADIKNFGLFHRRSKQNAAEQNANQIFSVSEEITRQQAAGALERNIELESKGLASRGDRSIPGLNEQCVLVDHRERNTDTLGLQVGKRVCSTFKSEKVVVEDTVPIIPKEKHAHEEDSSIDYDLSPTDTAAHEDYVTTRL
Kind of test: block of DAMGO-driven TRPC4 calcium entry – cell-based, HEK293 TRPC4/mu-opioid, Fluo-4 calcium, dose response (AID 434942).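 Further: potency of inhibitors blocking the TRPC4 calcium response.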 In kind it is functional.

Test [6] can be described thus: NIH3T3 cell viability loss – ATP luminescence, mouse fibroblasts, counter-screen, dose response (AID 2010).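 Further: cells exposed to compound for about 90 hours before reading.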 In kind it is functional, cell-based.
In the next test the target is Cytochrome P450 2C19 (Homo sapiens, UniProt P33261). Nature of the test: Cytochrome panel assay with activity outcomes. Panel member name: p450-cyp2c19 Compounds with AC50 equal or less than 10 uM are considered active. The note with it: read-out: AC50. The test is classed as functional.
The next test has as its target T2, Cytochrome P450 1A2 (Homo sapiens, UniProt P05177).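 Further: PubChem cytochrome P450 panel assay, CYP1A2 panel member.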
T2 sequence (P05177 whole entry): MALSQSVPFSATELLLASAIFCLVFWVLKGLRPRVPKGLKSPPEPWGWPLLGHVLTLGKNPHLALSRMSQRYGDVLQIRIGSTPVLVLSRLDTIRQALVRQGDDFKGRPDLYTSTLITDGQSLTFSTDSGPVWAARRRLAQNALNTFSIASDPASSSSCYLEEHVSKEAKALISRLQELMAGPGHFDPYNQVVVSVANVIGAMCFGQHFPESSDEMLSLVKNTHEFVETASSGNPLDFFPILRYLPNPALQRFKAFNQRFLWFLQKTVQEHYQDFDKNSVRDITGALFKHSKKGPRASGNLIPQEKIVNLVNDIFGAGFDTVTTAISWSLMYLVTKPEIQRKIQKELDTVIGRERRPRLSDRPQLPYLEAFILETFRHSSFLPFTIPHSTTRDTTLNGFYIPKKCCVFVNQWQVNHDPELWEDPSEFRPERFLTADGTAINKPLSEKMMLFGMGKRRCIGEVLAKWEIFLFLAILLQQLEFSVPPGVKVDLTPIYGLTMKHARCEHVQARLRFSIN

For test [7], the target named is T3, Corticotropin-releasing factor receptor 2/Corticotropin-releasing factor-binding protein (Homo sapiens, UniProt P24387+Q13324).
T3 sequence (Q13324 whole entry): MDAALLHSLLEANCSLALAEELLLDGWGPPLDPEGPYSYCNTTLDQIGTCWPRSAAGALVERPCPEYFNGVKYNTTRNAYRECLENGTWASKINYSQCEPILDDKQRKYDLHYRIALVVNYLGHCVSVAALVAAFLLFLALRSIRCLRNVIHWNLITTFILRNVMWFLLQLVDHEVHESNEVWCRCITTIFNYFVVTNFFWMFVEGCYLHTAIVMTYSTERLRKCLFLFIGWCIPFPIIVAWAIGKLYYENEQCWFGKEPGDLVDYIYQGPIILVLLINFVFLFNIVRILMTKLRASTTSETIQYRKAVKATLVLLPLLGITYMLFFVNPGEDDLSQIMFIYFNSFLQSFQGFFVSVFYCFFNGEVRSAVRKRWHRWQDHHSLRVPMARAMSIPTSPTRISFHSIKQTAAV
T3 sequence (P24387 whole entry): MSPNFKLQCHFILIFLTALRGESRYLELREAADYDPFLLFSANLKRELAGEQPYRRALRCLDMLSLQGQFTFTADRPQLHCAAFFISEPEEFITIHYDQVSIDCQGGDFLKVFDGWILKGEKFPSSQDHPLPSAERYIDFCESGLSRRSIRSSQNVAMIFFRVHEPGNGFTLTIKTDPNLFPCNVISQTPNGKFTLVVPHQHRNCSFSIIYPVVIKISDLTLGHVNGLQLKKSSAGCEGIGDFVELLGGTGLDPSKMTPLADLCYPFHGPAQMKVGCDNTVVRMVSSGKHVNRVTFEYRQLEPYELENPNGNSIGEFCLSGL
Kind of test: activators of CRF receptor 2 with binding protein – uHTS hits, confirmation (AID 602473). In kind it is functional. The following applies: read-out: EC50_Mean.

Test [8] concerns the target T4, Heat shock factor protein 1 (Mus musculus, UniProt P38532).
T4 sequence (P38532 whole entry): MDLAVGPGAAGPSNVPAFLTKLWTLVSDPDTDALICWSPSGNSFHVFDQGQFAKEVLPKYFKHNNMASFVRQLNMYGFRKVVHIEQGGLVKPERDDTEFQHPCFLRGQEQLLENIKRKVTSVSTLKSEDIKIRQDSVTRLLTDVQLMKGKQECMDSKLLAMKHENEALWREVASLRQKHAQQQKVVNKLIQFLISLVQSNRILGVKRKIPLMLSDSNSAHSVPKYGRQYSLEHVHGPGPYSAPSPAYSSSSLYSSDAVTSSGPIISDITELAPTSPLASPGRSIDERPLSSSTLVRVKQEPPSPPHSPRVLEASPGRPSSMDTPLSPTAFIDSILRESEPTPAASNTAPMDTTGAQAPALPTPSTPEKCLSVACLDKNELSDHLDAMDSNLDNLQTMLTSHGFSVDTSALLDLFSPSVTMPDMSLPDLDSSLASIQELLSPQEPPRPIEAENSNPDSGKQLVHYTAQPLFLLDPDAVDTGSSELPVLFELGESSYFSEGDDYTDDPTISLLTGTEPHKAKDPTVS
Kind of test: enhancement of HSF1-driven luciferase signal – cell-based, NIH3T3, luminescence, dose retest, confirmation (AID 435004).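 Further: stress induced by proteasome inhibitor MG132 added 30 min after compound; luciferase reporter driven by HSF1 response element in NIH3T3 cells; actives raise luminescence as potentiators of the MG132 stress response.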 The test is classed as functional.

Test [9] deals with T3, Corticotropin-releasing factor receptor 2/Corticotropin-releasing factor-binding protein. Kind of test: Dose Response confirmation of uHTS hits for small molecule antagonists of the CRF-binding protein and CRF-R2 receptor complex. In kind it is functional. The following applies: read-out: IC50_Mean.
Test [10] concerns the target T1, Short transient receptor potential channel 4. Nature of the test: calcium entry via TRPC4 opening agents – cell-based, HEK293 TRPC4/mu-opioid, Fluo-4 calcium, dose response (AID 434937). In kind it is functional.
The target of another test is Beta-galactosidase (Escherichia coli, UniProt Q8VNN2). Kind of test: detection-enzyme interference by beta-gal modulators – biochemical, E. coli enzyme, set 3, artefact control for CCR6 antagonist project, dose response (AID 504712). The test is classed as functional.
Beta-galactosidase, sequence (Q8VNN2 whole entry): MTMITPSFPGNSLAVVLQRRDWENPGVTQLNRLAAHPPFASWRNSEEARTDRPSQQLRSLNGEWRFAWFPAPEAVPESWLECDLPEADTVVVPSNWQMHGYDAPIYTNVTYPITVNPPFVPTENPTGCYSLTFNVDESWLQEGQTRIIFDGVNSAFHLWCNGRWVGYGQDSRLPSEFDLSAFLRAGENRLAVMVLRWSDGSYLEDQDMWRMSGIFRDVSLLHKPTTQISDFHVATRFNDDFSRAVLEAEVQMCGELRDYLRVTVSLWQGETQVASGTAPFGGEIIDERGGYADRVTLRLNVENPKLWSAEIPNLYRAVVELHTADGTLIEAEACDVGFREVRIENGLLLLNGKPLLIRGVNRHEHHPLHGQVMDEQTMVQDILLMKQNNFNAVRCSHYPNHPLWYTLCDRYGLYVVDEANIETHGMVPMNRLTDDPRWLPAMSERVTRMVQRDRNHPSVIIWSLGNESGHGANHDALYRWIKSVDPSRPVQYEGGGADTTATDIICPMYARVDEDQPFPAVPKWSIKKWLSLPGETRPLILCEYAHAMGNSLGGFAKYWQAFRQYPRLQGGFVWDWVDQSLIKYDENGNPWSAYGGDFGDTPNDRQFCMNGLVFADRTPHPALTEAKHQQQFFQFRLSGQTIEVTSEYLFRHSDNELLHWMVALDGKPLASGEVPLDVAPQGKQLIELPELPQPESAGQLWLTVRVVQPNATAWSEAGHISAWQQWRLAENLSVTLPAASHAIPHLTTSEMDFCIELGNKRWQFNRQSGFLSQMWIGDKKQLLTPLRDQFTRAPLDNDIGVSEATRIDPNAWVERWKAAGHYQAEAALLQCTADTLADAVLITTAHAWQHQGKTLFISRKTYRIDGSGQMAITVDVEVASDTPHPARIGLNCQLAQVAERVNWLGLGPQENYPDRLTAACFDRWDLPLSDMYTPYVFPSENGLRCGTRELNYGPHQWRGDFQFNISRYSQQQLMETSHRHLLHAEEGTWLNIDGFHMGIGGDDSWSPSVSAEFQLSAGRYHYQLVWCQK

A word on the AC50: it is the midpoint of the concentration-response curve, whichever way the signal moves.

The source made the active and inactive calls.

Consider `Cc1ccc2nc(NC(=S)NC(=O)c3ccco3)sc2c1`, for which the EC50 was > 79.4 µM (not active) in test [1], 51.8 µM (not active) in [2] and 43 µM (inactive) in [3].
Take `CCCCC(CC)C(=O)Nc1ncc([N+](=O)[O-])s1` (configuration not stated): the EC50 in test [4] was 1.29 µM (active); in test [5], 7.5 µM (active); in [6], > 60 µM (not active).
In the case of `COc1ccc2cc(C#N)c(SCC(=O)NNC(=O)Cc3ccccc3)nc2c1`, the EC50 in [1] is > 79.4 µM (not active); in [2], 11.1 µM (not active); in test [3], 10.7 µM (inactive). The AC50 on Cytochrome P450 3A4 was 1.26 µM (inconclusive); at Cytochrome P450 2D6, 2.51 µM (inconclusive); on Cytochrome P450 2C19 it was 39.8 nM (inconclusive).
In the case of `CCn1c(=O)cc(SCC(=O)NCc2ccc(C)cc2)c2ccccc21`, the EC50 in [1] was > 79.4 µM (not active); in [2], > 26.5 µM (not active); in test [3], > 79.4 µM (inactive).
For `c1ccc(Cn2c(CN3CCCC3)nc3ccccc32)cc1`, the AC50 is 35.5 µM (inconclusive) on Cytochrome P450 2C9 and 14.1 µM (inconclusive) on Cytochrome P450 1A2. Further, the EC50 in [5] is 2.11 µM (active).
For the compound `O=C(CNS(=O)(=O)c1ccc2ccccc2c1)OCC(=O)c1ccc(Br)s1`, the figures for the EC50 in test [1], in test [2] and in test [3] were 36.5 µM (not active), 4.58 µM (active) and 8.72 µM (active), respectively.
For `CC(=O)C1=C(O)C(=O)N(c2nccs2)C1c1ccccc1` (configuration not stated), the EC50 in test [7] is > 53 µM (inactive); in test [1] it was > 79.4 µM (not active); in test [2], 35.4 µM (not active); in test [8] it was > 260 µM (inactive); in test [3], 86.4 µM (inactive). In [9], the IC50 was > 47.1 µM (inactive).
Consider `NC(=O)c1nsc(C(=O)N(Cc2ccccc2Cl)C(C(=O)NCC2CCCO2)c2ccc(O)cc2)c1N` (configuration not stated), for which the EC50 in [5] is 5.96 µM (active).
For the compound `COc1ccc(C(CNC(=O)Cc2ccc3ccccc3c2)N(C)C)cc1` (configuration not stated), the EC50 in test [5] was 0.0533 µM (active); in [10] it was 668 nM (active).
With `Oc1c(/C=N/Cc2ccncc2)sc2ccccc12`, the IC50 on Beta-galactosidase was > 66.6 µM (inactive).
`O=C1C=CC(=O)N1`: the IC50 at Beta-galactosidase is > 66.6 µM (inactive).
